Patent US20240050574A1, “IONIZABLE LIPIDS” (eTheRNA immunotherapies NV, priority 2020, published 2024)

What was measured:
[1] = Body weight after intratumoral LNP administration (CT26 model); format: in vivo, Balb/c mice; conditions: after intratumoral administration of 10 μg mRNA LNP
Procedure: Fluc mRNA expression in tumor and liver was assessed at 6 an 24 hours post injection. By injecting mice peritoneally with D-luciferin (Promega), bioluminescence can be measured through in vivo imaging (IVIS Spectrum System). Bioluminescence is generated through an oxidation reaction which occurs between the enzyme luciferase derived from the firefly mRNA encapsulated in the LNP and its substrate D-luciferin. The Living Image Software (PerkinElmer) was used to specify tumor and liver ‘region of interests (ROIs) after which the average radiance (p/s/cm^2/sr) was calculated within these ROIs. To monitor tolerability of different LNP types used, bodyweight at 6 and 24 hours post injection was compared to baseline bodyweight at day of randomization.
Balb/c mice were subcutaneously inoculated with CT26 tumor cells. When tumors reached a mean volume of 50-100 mm^3, tumors were injected with the respective mRNA LNPs (10 μg mRNA; 20 μl volume; TBS buffer) or with control buffer.

B16F10 tumors = assay: Fluc mRNA expression in tumor after intratumoral LNP injection, in vivo bioluminescence; design: species or system C57/BL6 mice; conditions: B16F10 tumors (Example 2.5); intratumoral 10 μg mRNA; 6 hours and 24 hours post injection; vs MC-3 based benchmark LNP
Procedure: (§1) In case of CT26 tumor inoculation we used Balb/c mice. For B16F10 tumor inoculation C57/BL6 mice were used. To prepare for subcutaneous tumor inoculation, mice were anesthetized using 2.5% isoflurane and the injection site was shaved. The injection site is typically on the posterior/lateral aspect of the lower left flank. For inoculation purposes, cells need to be approximately 1 week in culture and between passage 3 and 5 after thawing. Cold tumor cell solution was injected subcutaneously at a dose of 0.5*10e6 cells/50 μl PBS. Tumor growth was measured every 2-3 days using the Caliper device. The following formula was used to calculate tumor size: (tumor width*tumor width*tumor length)/2. […] After injections, mice were always monitored for 5-10 minutes until fully awake without showing any sings of pain distress or complications.
(§2) Fluc mRNA expression in tumor and liver was assessed at 6 an 24 hours post injection. By injecting mice peritoneally with D-luciferin (Promega), bioluminescence can be measured through in vivo imaging (IVIS Spectrum System). […] The Living Image Software (PerkinElmer) was used to specify tumor and liver ‘region of interests (ROIs) after which the average radiance (p/s/cm^2/sr) was calculated within these ROIs. […]

[2] = LNP size and polydispersity index by Dynamic Light Scattering (Malvern Zetasizer); format: physicochemical
[3] = mRNA encapsulation efficiency by Ribogreen RNA assay; format: physicochemical; conditions: for E.E. (encapsulation efficiency): N/P 10
Procedure: Lipid based nanoparticles are produced by microfluidic mixing of an mRNA solution in sodium acetate buffer (100 mM, pH4) and lipid solution in a 2:1 volume ratio at a speed of 9 mL/min using the NanoAssemblr Benchtop (Precision Nanosystems). The lipid solution contained a mixture of the ionizable lipid of interest, DSPC, DOPC or DOPE (Avanti), Cholesterol (Sigma) and DMG-PEG2000 (Sunbright GM-020, NOF corporation. The 4 lipids were mixed at 6 different molar ratios. LNPs were dialyzed against TBS (10000 times more TBS volume than LNP volume) using slide-a-lyzer dialysis cassettes (20K MWCO, 3 mL, ThermoFisher). Size, polydispersity and zeta potential were measured with a Zetasizer Nano (Malvern). mRNA encapsulation was measured by standard Ribogreen RNA assay (Invitrogen). […]
(§3) LNP formulations were prepared using a modified procedure of a method previously described for siRNA LNP synthesis. All formulations were prepared in a sterile manner with a N/P ratio of 10. All lipid components were dissolved in ethanol at molar ratios of 50:10:38.5:1.5 mol % (ionizable lipid/DSPC/Cholesterol/DMG-PEG2000). DSPC, Cholesterol and DMG-PEG2000 were purchased from Avanti Polar Lipids (Alabaster, Alabama, USA), while the Ionizable lipids are synthesized in-house. The final lipid concentration in ethanol was fixed at 10 mg/mL. E7 mRNA was dissolved in 100 mM acetate buffer (Sigma Aldrich, Saint-Louis, Missouri, USA) pH 4. The ethanol and aqueous phase were combined using a microfluidic mixer (NanoAssemblr® BenchTop (Precision Nanosystems, Vancouver, BC) in a 2:1 (aqueous:ethanol) ratio. Formulations were dialysed afterwards against 1× Sterile TBS pH 7.4 (Sigma Aldrich, Saint-Louis, Missouri, USA) using Slide-A-Lyzer® dialysis cassettes with a MWCO of 20.000 Da (Thermo Scientific, Massachusetts, USA) for 18 hours. Afterwards, the purified formulations were concentrated using Amicon ultra centrifugal filters (EMD Millipore, Massachusetts, USA). Finally, the exact concentration and E.E. % was determined through a Ribogreen Assay prior to final dilution with TBS (100 μg/mL E7 mRNA per formulation. All formulations were characterized for size and PDI using Dynamic Light Scattering Zetasizer Nano-ZS (Malvern Pananlytical Ltd., Malvern, UK) and stored afterwards at 4° C. The physico-chemical characteristics of each formulation can be found in Table 5.

liver [4] = assay: Fluc mRNA off-target expression in liver after intratumoral LNP injection of CT26 tumors; format: in vivo, Balb/c mice; conditions: intratumoral 10 μg mRNA, 6 hours and 24 hours post injection, vs MC-3 based benchmark LNP
Procedure: as §1, §2

[5] = LNP size and polydispersity index by Dynamic Light Scattering (Malvern Zetasizer); format: physicochemical; conditions: N/P 10
Procedure: Lipid based nanoparticles are produced by microfluidic mixing of an mRNA solution in sodium acetate buffer (100 mM, pH4) and lipid solution in a 2:1 volume ratio at a speed of 9 mL/min using the NanoAssemblr Benchtop (Precision Nanosystems). The lipid solution contained a mixture of the ionizable lipid of interest, DSPC, DOPC or DOPE (Avanti), Cholesterol (Sigma) and DMG-PEG2000 (Sunbright GM-020, NOF corporation. The 4 lipids were mixed at 6 different molar ratios. LNPs were dialyzed against TBS (10000 times more TBS volume than LNP volume) using slide-a-lyzer dialysis cassettes (20K MWCO, 3 mL, ThermoFisher). Size, polydispersity and zeta potential were measured with a Zetasizer Nano (Malvern). mRNA encapsulation was measured by standard Ribogreen RNA assay (Invitrogen).
Size and Poly Dispersity Index were assessed by Dynamic Light Scattering (DLS) on a Malvern Zetasizer. MC-3 is the ionizable lipid used in Onpattro and is considered the state-of-the art.
as §3

liver [6] = assay: Fluc mRNA off-target expression in liver after intratumoral LNP injection of B16F10 tumors; format: in vivo, C57/BL6 mice; conditions: B16F10 tumors (Example 2.5); intratumoral 10 μg mRNA; 6 hours and 24 hours post injection; vs MC-3 based benchmark LNP
Procedure: as §1, §2

[7] = Body weight after intratumoral LNP administration (B16F10 model); format: in vivo, C57/BL6 mice; conditions: B16F10 model (Example 2.5); after intratumoral administration of 10 μg mRNA LNP
E7-specific CD8 T cells = assay: E7-specific CD8 T cell response after intramuscular E7 mRNA LNP vaccination (Example 5); format: in vivo, mice; conditions: Example 5, FIG. 13, in vitro stimulation with E7-derived peptide, vs MC-3
[8] = Table 3, LNP ionizable lipid/phospholipid/cholesterol/DMG-PEG2000 about 50/10/38.5/1.5, DOPE, except MC-3 with DSPC, eGFP mRNA
[9] = Table 6 (Example 4, HA mRNA), ionizable lipid/DSPC/Chol/DMG-PEG2000 50/10/38.5/1.5 mol %, N/P 10
[10] = Table 7, Ratio 2: 56.71/14.43/27.58/1.28 mol % ionizable lipid/DSPC/Chol/DMG-PEG2000, N/P 10
[11] = Table 5, ionizable lipid/DSPC/Chol/DMG-PEG2000 50/10/38.5/1.5 mol %, E7 mRNA
[12] = Table 6 (Example 4, HA mRNA), ionizable lipid/DSPC/Chol/DMG-PEG2000 50/10/38.5/1.5 mol %
[13] = Table 7, Ratio 1: 50/10/38.5/1.5 mol % ionizable lipid/DSPC (SS-EC: DOPE)/Chol/DMG-PEG2000
[14] = Table 7, Ratio 2: 56.71/14.43/27.58/1.28 mol % ionizable lipid/DSPC/Chol/DMG-PEG2000

SMILES | PDI [2, 9] | size [2, 9] [nm] | PDI [2, 10] | size [2, 10] [nm] | E.E. (encapsulation efficiency) [3, 12] [%] | E.E. (encapsulation efficiency) [3, 13] [%] | E.E. (encapsulation efficiency) [3, 14] [%] | PDI [5, 13] | size [5, 13] [nm] | other results
CCCCCCCC/C=C\CCCCCCCC(=O)OCC(CNC(=O)OCCSSCCOC(=O)NCCN1CCCCCC1)OC(=O)CCCCCCC/C=C\CCCCCCCC (stereo not drawn) [S-Ac7-DOg] | 0.077 | 93.62 | 0.106 | 97 | 98 | 97 | 96 | 0.094 | 109 | body weight [1]: No weight loss; Fluc expression levels in the tumor (in vivo bioluminescence) (B16F10 tumors): increased Fluc expression levels in the tumor compared to the MC-3 based benchmark LNP; PDI [2, 8]: 0.21; size ([2]; Table 3, LNP ionizable lipid/phospholipid/cholesterol/DMG-PEG2000 about 50/10/38.5/1.5, DOPE, except MC-3 with DSPC, eGFP mRNA, in nm (unit assumed)): 87.46; % encap [3, 8]: 90%; E.E. (encapsulation efficiency) [3, 11]: 96%; off-target Fluc expression in the liver (liver [4]): strongly reduced off-target expression in the liver; PDI [5, 11]: 0.062; size [5, 11]: 97.51 nm; off-target Fluc expression in the liver (liver [6]): strongly reduced off-target expression in the liver; body weight [7]: No weight loss
CCCCCCCCC(CCCCCC)C(=O)OCCN(CCOC(=O)C(CCCCCC)CCCCCCCC)C(=O)OCCSSCCOC(=O)NCCN1CCCCCC1 (stereo not drawn) [S-Ac7-DHDa] | 0.083 | 105.1 | 0.081 | 88 | 97 | 97 | 95 | 0.095 | 90 | T cell responses (IFNg+, IFNg+ TNFa+, IFNg+ Granzyme b+, IFNg+ CD107+ CD8 T cells in spleen) (E7-specific CD8 T cells): superior T cell responses compared to MC-3
